Source: patent US20130005747A1, “METHOD FOR SELECTING A CANCER THERAPY” (Cyclacel Limited, priority 2010, published 2013)

Assays:
Assay in all cases: Fractional growth, 72 h seliciclib
Type in all cases: cell-based, human
SW 900 = SW 900 (Lung: NSCLC), 15 μM seliciclib
Text: (§1) A total of 270 human cancer cell lines from diverse cancer histopathologic types were investigated.

H2373 = H2373 (Lung), 15 μM seliciclib
Text: as §1

T47D = T47D (Breast), 15 μM seliciclib
Text: as §1

NCI-H1435 = NCI-H1435 (Lung: NSCLC), 15 μM seliciclib
Text: as §1

NCI-H727 = NCI-H727 (Lung), 15 μM seliciclib
Text: as §1

NCI-H2122 = NCI-H2122 (Lung: NSCLC), 15 μM seliciclib
Text: as §1

SK-MES = SK-MES (Lung: NSCLC), 15 μM seliciclib
Text: as §1

BT-549 = BT-549 (Breast), 15 μM seliciclib
Text: as §1

G-402 = G-402 (Kidney), 15 μM seliciclib
Text: as §1

BHY = BHY (Head & Neck), 15 μM seliciclib
Text: as §1

EBC-1 = EBC-1 (Lung: NSCLC), 15 μM seliciclib
Text: as §1

NCI-H520 = NCI-H520 (Lung: NSCLC), 15 μM seliciclib
Text: as §1

HSC-3 = HSC-3 (Head & Neck), 15 μM seliciclib
Text: as §1

WM 266-4 = WM 266-4 (Skin), 15 μM seliciclib
Text: as §1

HT 1376 = HT 1376 (Bladder), 15 μM seliciclib
Text: as §1

RT4 = RT4 (Bladder), 15 μM seliciclib
Text: as §1

NCI-H1048 = NCI-H1048 (Lung), 15 μM seliciclib
Text: as §1

HuH-7 = HuH-7 (Liver), 15 μM seliciclib
Text: as §1

SK-N-AS = SK-N-AS (Brain), 15 μM seliciclib
Text: as §1

HCC1395 = HCC1395 (Breast), 15 μM seliciclib
Text: as §1

SW 13 = SW 13 (Kidney), 15 μM seliciclib
Text: as §1

C32 = C32 (Skin), 15 μM seliciclib
Text: as §1

GCT = GCT (Miscellaneous), 15 μM seliciclib
Text: as §1

COLO 320DM = COLO 320DM (Intestine), 15 μM seliciclib
Text: as §1

SiHa = SiHa (Cervix), 15 μM seliciclib
Text: as §1

SK-MEL-37 = SK-MEL-37 (Skin), 15 μM seliciclib
Text: as §1

NCI-H2452 = NCI-H2452 (Lung), 15 μM seliciclib
Text: as §1

HPAF-II = HPAF-II (Pancreas), 15 μM seliciclib
Text: as §1

NCI-H1944 = NCI-H1944 (Lung: NSCLC), 15 μM seliciclib
Text: as §1

UM-UC-3 = UM-UC-3 (Bladder), 15 μM seliciclib
Text: as §1

NCI-H630 = NCI-H630 (Intestine), 15 μM seliciclib
Text: as §1

KP-1N = KP-1N (Pancreas), 15 μM seliciclib
Text: as §1

NCI-H1573 = NCI-H1573 (Lung: NSCLC), 15 μM seliciclib
Text: as §1

AsPC-1 = AsPC-1 (Pancreas), 15 μM seliciclib
Text: as §1

SU.86.86 = SU.86.86 (Pancreas), 15 μM seliciclib
Text: as §1

SHP-77 = SHP-77 (Lung), 15 μM seliciclib
Text: as §1

HOS = HOS (Bone), 15 μM seliciclib
Text: as §1

CC[C@H](CO)Nc1nc(NCc2ccccc2)c2ncn(C(C)C)c2n1 [seliciclib, roscovitine]
Fractional Growth (SW 900): 0.5842
Fractional Growth (H2373): 0.6168
Fractional Growth (T47D): 0.6314
Fractional Growth (NCI-H1435): 0.6379
Fractional Growth (NCI-H727): 0.5866
Fractional Growth (NCI-H2122): 0.1093
Fractional Growth (SK-MES): 0.4439
Fractional Growth (BT-549): 0.758
Fractional Growth (G-402): 0.2708
Fractional Growth (BHY): 0.5602
Fractional Growth (EBC-1): 0.3971
Fractional Growth (NCI-H520): 0.6863
Fractional Growth (HSC-3): 0.5223
Fractional Growth (WM 266-4): 0.4972
Fractional Growth (HT 1376): 0.6897
Fractional Growth (RT4): 0.9342
Fractional Growth (NCI-H1048): 0.5502
Fractional Growth (HuH-7): 0.3911
Fractional Growth (SK-N-AS): 0.7261
Fractional Growth (HCC1395): 0.6999
Fractional Growth (SW 13): 0.5624
Fractional Growth (C32): 0.5391
Fractional Growth (GCT): 0.4799
Fractional Growth (COLO 320DM): 0.3188
Fractional Growth (SiHa): 0.4302
Fractional Growth (SK-MEL-37): 0.5209
Fractional Growth (NCI-H2452): 0.4571
Fractional Growth (HPAF-II): 0.4628
Fractional Growth (NCI-H1944): 0.6921
Fractional Growth (UM-UC-3): 0.3538
Fractional Growth (NCI-H630): 0.7543
Fractional Growth (KP-1N): 0.6045
Fractional Growth (NCI-H1573): 0.5485
Fractional Growth (AsPC-1): 0.6879
Fractional Growth (SU.86.86): 0.3887
Fractional Growth (SHP-77): 0.617
Fractional Growth (HOS): 0.617
